Data from US9353067B2, “Heterocyclic compounds and uses thereof in the treatment of sexual disorders” (ATIR Holding S.A., priority 2011, dated 2016).

Assays:
PARP-1 = PARP-1 (Homo sapiens (Human), UniProt P09874); assay: Universal Chemiluminescent PARP Assay; assay type: biochemical; settings: average results from two assays
Description: In addition, R-55 and its hydrochloride salt were assayed for PARP (poly(ADP-ribose)polymerase) inhibitory activity, as some quinazolinone derivatives, particularly derivatives comprising quinazolinone linked via a three-carbon moiety to substituted pyridinyl and piperazinyl moieties, have been identified as potent PARP inhibitors [U.S. Patent Application Publication No. 2004/0077667; Iwashita et al., FEBS Lett 579:1389-1393(2005); Hattori et al., J Med Chem 47:4151-4154(2004)]. PARP plays a natural role in repair of DNA damage, and inhibition of PARP may lead to undesirable side effects in any treatment of a sexual disorder.
Inhibition of PARP-1 was assayed using a Universal Chemiluminescent PARP Assay (Trevigen, Inc.).
The tested compounds were diluted from 2.1 mg of powder in 25 μl of DMSO. The tested compounds were diluted to 100 μM in 1% DMSO/99% ethanol. 3-Aminobenzamide (3-AB), a commercially available weak PARP inhibitor, was used as a positive control. The activity of PARP was quantified as relative light units (RLU). Each of the tested compounds was assayed twice.
In Assay 1, the 100 μM stock solution was diluted to 40 μM in 1×PARP buffer. The compounds were then serially diluted down to 0.4 μM. Each tested compound was
further diluted 1:4 during the assay, so the final concentrations ranged from 10 μM to 0.1 μM.
In Assay 2, the 100 μM stock was added to 1×PARP buffer to prepare samples with concentrations ranging from 40 μM to 2 μM. A 10 μM stock solution was added to 1×PARP buffer to prepare samples with concentrations of 1 μM and 0.4 μM. Each tested compound was further diluted 1:4 during the assay, so the final concentrations ranged from 10 μM to 0.1 μM.

[1] = Hydrolysis (half-life) of esterified derivatives of R-55 in human plasma; assay type: in vitro ADME; settings: for half-life at 0.19 mg/ml: fresh human plasma, hydrolysis of ester to R-55, human plasma, read-out: T1/2 in human plasma; for half-life at 0.19 mg/ml / % L-207 (hydrolysis of L-207 to R-55): 37° C.; for rate of hydrolysis (in words): human and rat plasma, comparison of acyl moieties; for % L-207 (hydrolysis of L-207 to R-55): human plasma
Description: (§1) 50 μl of dimethyl sulfoxide containing 0.2 mg of the tested derivative was added to 1 ml of fresh plasma (human or rat) in a sterile Eppendorf tube. The samples were then incubated at 37° C., and 100 μl samples were removed at various times, up to 120 minutes after incubation. The plasma samples were immediately added to 1 ml acetonitrile. After vigorous mixing by vortex, the samples were centrifuged for 10 minutes at 2000 rotations per minute at 4° C. 0.95 ml of the supernatant was then removed and stored at −20° C. until determination of the concentrations of R-55 and its esterified derivative by LCMS analysis.

[2] = Hydrolysis (half-life) of esterified derivatives of R-55 in rat plasma; assay type: in vitro ADME; settings: 37° C.; for half-life at 0.19 mg/ml: fresh rat plasma, hydrolysis of ester to R-55, rat plasma, read-out: T1/2 in rat plasma; for % L-207 (hydrolysis of L-207 to R-55): rat plasma
Description: as §1

[3] = Solubility of L-207 in solvents; assay type: physicochemical
Text: The compound was soluble in dimethylformamide, dimethyl sulfoxide, tetrahydrofuran, chloroform, dichloromethane, and HCl in diethyl ether, and non-soluble in water.

[4] = target: D4.4 type dopamine receptor (Homo sapiens (Human), UniProt P21917); assay: Competitive binding to D4.4 receptor ([3H]-YM-09151-2); settings: human recombinant receptor in CHO cells, [3H]-YM-09151-2 0.3 nM
Description: R-55 (which comprises a 3-hydroxyphenyl moiety) and its isomers L-221 (comprising a 4-hydroxyphenyl moiety) and L-238 (comprising a 2-hydroxyphenyl moiety) were assayed for competitive binding to D2 SHORT and D4.4 type dopamine receptors, in order to assess their efficacy for treating sexual disorders. Both receptor types are expressed as human recombinant proteins in CHO cells, as described, for example, in Jarvis et al. (1973); Van Tol et al. (1991) and Van Tol et al. (1992).
Determination of binding to D4.4 receptor was performed using [^3H]-YM-09151-2 (70-87 Ci/mmol, 0.3 nM), as a radioligand, in the presence of various concentrations of the tested compound. Reactions were carried out in 50 mM TRIS-HCl (pH 7.4) containing 5 mM MgCl2, 5 mM EDTA, 5 mM KCl and 1.5 mM CaCl2, for 60 minutes at 22° C. The reaction was terminated by rapid vacuum filtration onto glass fiber filters. Radioactivity trapped onto the filters was determined (counted) and compared to control values in order to accurately evaluate any interaction of the tested compound(s) with the cloned dopamine D4.4 binding site.

Sequence of PARP-1 (P09874 whole entry): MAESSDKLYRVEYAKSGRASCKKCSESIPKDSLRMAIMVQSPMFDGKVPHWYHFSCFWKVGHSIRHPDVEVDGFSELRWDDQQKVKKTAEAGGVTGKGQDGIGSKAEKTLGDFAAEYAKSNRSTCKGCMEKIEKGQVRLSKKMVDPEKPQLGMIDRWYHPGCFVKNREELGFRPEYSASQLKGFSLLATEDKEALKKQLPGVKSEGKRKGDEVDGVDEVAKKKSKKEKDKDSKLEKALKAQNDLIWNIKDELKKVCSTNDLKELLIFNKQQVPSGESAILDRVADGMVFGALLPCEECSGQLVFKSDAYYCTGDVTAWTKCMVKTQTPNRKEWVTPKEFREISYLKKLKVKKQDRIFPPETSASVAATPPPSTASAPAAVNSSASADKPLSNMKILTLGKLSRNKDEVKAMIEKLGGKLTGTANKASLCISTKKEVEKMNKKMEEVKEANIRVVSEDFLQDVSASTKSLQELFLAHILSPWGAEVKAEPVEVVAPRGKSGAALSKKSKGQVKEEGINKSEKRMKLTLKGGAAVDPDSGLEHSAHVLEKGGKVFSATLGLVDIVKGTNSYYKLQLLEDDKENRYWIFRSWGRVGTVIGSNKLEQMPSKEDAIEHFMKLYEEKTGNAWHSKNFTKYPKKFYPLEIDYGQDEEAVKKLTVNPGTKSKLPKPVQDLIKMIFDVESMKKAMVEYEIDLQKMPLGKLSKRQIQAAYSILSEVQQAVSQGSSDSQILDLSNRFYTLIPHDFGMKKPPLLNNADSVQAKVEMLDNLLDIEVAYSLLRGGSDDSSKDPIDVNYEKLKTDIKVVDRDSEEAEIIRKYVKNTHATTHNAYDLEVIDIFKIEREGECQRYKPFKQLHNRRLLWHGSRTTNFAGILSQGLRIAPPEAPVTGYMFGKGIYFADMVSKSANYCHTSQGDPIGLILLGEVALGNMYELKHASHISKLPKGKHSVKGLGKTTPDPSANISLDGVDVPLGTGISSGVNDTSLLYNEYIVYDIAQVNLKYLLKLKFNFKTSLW
Sequence of D4.4 type dopamine receptor (P21917 whole entry): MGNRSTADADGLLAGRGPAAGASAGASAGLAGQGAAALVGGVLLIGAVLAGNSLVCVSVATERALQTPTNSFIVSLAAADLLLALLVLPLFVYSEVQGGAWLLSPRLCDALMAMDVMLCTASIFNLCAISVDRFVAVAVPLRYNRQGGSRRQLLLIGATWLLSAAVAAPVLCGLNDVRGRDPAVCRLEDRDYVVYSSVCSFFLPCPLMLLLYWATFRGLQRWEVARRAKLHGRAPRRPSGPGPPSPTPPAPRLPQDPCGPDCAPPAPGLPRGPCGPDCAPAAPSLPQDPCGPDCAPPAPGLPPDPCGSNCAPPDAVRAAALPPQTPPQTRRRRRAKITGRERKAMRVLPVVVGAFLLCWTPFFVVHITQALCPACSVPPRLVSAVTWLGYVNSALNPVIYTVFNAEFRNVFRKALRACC

Structure (SMILES) | half-life at 0.19 mg/ml [1] [min] | rate of hydrolysis (in words) [1] | half-life at 0.19 mg/ml [2] [min] | other results
NC(=O)c1cccc(N)c1 [Compound 3-AB, 3-Aminobenzamide, reference compound] | – | – | – | inhibition at 5 µM (PARP-1; 5 μM): 21%; inhibition at 10 µM (PARP-1; 10 μM): 40%
CCC(=O)Oc1cccc(N2CCN(Cc3nc4ccccc4c(=O)[nH]3)CC2)c1 [Compound L-128] | 10 | relatively rapid hydrolysis | 0.31 | –
COc1ccc(C(=O)Oc2cccc(N3CCN(Cc4nc5ccccc5c(=O)[nH]4)CC3)c2)cc1 [Compound L-162] | 377 | slower hydrolysis than exhibited by the corresponding non-substituted aryl | 54 | –
Cc1ccc(S(=O)(=O)Oc2cccc(N3CCN(Cc4nc5ccccc5c(=O)[nH]4)CC3)c2)cc1 [Compound L-163] | > 1000 | considerably slower hydrolysis than carboxyl esters | > 1000 | –
CS(=O)(=O)Oc1cccc(N2CCN(Cc3nc4ccccc4c(=O)[nH]3)CC2)c1 [Compound L-164] | > 1000 | considerably slower hydrolysis than carboxyl esters | > 1000 | –
N#Cc1cccc(C(=O)Oc2cccc(N3CCN(Cc4nc5ccccc5c(=O)[nH]4)CC3)c2)c1 [Compound L-166] | 480 | – | 7.1 | –
O=C(Oc1cccc(N2CCN(Cc3nc4ccccc4c(=O)[nH]3)CC2)c1)C12CC3CC(CC(C3)C1)C2 [Compound L-167] | 750 | relatively slow hydrolysis | 58 | –
O=C(Oc1cccc(N2CCN(Cc3nc4ccccc4c(=O)[nH]3)CC2)c1)C1CCCCC1 [Compound L-169] | 41 | relatively rapid hydrolysis | 4.7 | –
COc1ccc(CC(=O)Oc2cccc(N3CCN(Cc4nc5ccccc5c(=O)[nH]4)CC3)c2)cc1 [Compound L-170] | 280 | – | 7.5 | –
CCOc1ccc(C(=O)Oc2cccc(N3CCN(Cc4nc5ccccc5c(=O)[nH]4)CC3)c2)cc1 [Compound L-173] | > 1000 | considerably slower hydrolysis | 16.5 | –
COc1ccccc1C(=O)Oc1cccc(N2CCN(Cc3nc4ccccc4c(=O)[nH]3)CC2)c1 [Compound L-174] | 455 | slower hydrolysis than exhibited by the corresponding non-substituted aryl | 52 | –
Cc1ccccc1C(=O)Oc1cccc(N2CCN(Cc3nc4ccccc4c(=O)[nH]3)CC2)c1 [Compound L-199] | > 1000 | – | 44 | –
O=C(Oc1cccc(N2CCN(Cc3nc4ccccc4c(=O)[nH]3)CC2)c1)c1ccccc1 [Compound L-207] | 134 | relatively rapid hydrolysis | 29 | % L-207 (hydrolysis of L-207 to R-55) ([1]; 10 minutes): 97.54%; % L-207 (hydrolysis of L-207 to R-55) ([1]; 30 minutes): 89.21%; % L-207 (hydrolysis of L-207 to R-55) ([1]; 60 minutes): 77.11%; % L-207 (hydrolysis of L-207 to R-55) ([1]; 90 minutes): 64.67%; % L-207 (hydrolysis of L-207 to R-55) ([1]; 120 minutes): 52.91%; % L-207 (hydrolysis of L-207 to R-55) ([2]; 0 minutes): 99.49%; % L-207 (hydrolysis of L-207 to R-55) ([2]; 15 minutes): 74.08%; % L-207 (hydrolysis of L-207 to R-55) ([2]; 30 minutes): 47.73%; % L-207 (hydrolysis of L-207 to R-55) ([2]; 60 minutes): 6.61%; % L-207 (hydrolysis of L-207 to R-55) ([2]; 90 minutes): 0.76%; % L-207 (hydrolysis of L-207 to R-55) ([2]; 120 minutes): 0.41%; solubility in organic solvents ([3]; dimethylformamide, dimethyl sulfoxide, tetrahydrofuran, chloroform, dichloromethane, HCl in diethyl ether): soluble; solubility in water ([3]; water): non-soluble
O=C(Oc1cccc(N2CCN(Cc3nc4ccccc4c(=O)[nH]3)CC2)c1)c1ccc(F)cc1 [Compound L-209] | 470 | slower hydrolysis than exhibited by the corresponding non-substituted aryl | 35 | –
O=c1[nH]c(CN2CCN(c3ccc(O)cc3)CC2)nc2ccccc12 [Compound L-221, 2-((4-(4-hydroxyphenyl)piperazin-1-yl)methyl)quinazolin-4-one] | – | – | – | IC50 [4]: ~30 µM
